The values that follow are results of earlier work, collected in patent publication US20050215571A1, “Therapeutic combination for cognititon enhancement and psychotic disorders” (Pfizer Inc., priority 2003, published 2005).

Test in data set [1]: not given
The source holds these as a separate data set.

Consider `O=C1Cc2cc(CCN3CCN(c4nsc5ccccc45)CC3)c(Cl)cc2N1` [Ziprasidone, 5-[2-[4-(1,2-benzisothiazol-3-yl)piperazin-1-yl]ethyl]-6-chloroindolin-2-one], for which the half-life (in vivo) is 6 to 7 h. Moreover, the Oral bioavailability entry (oral, taken with food) was “approximately 60%”. In data set [1], the protein binding result is recorded as “extensive”.

A word on the half-life: it is the time needed for the level to fall by half in the phase considered.
